Data as given in patent publication US5047242A, “Azadirachtin derivative insecticides” (Native Plant Institute ("NPI"), priority 1987, dated 1991).
Values after ≈ are worked out from the molar mass of the structure shown. “Also recorded” adds a separate entry of the source. Where two headings read alike, the source gives them in different places.

Assays:
[1] = tested on: Heliothis virescens; test: Artificial diet feeding bioassay, mortality and growth inhibition in first-instar larvae; format: in vivo, Heliothis virescens (tobacco budworm); conditions: for EC50 (concentration causing 50% growth inhibition): Table 1, first-instar Heliothis virescens larvae, artificial diet, parentheses = 95% confidence limits
Excerpt: The results of the growth inhibitory and lethal activities of azadirachtin and these 8 derivatives when fed in an artificial diet to Heliothis virescens larvae are shown in Table 1. Similar to the results of Morgan, E. D., in "Natural pesticides from the Neem tree (Azadirachta indica A. Juss), Schmutterer, H., et al., Eds., Proc. First International Neem Conference (Rottach-Egern, 1980), German Agency for Technical Corporation,Eschborn, Germany, 1982, pps. 43-52 (hereinafter "Morgan"), neither deacetylation nor hydrogenation of the carbon-carbon double bond of the dihydrofuran ring moiety of azadirachtin had any significant effect on activity of the compound against H. virescens.
Mortality and growth inhibition in first-instar Heliothis
virescens larvae fed azadirachtin and eight derivatives in an
artificial diet (I. Kubo and J. A. Klocke, In: Plant Resistance to
Insects (P. A. Helin, Ed.), ACS Symposium Series 208, American Chemical
Society, Washington, D.C. (1983), pp. 329-346.).^a
^b LC50 values are the concentrations (ppm) causing 50%
^c EC50 values are the concentrations (ppm) causing 50% growth
^d Numbers in parentheses are the 95% confidence limits determined
using the methods of Litchfield and Wilcoxon, J. Pharmacol. Exp. Ther.
An artificial diet feeding bioassay with neonate larvae of tobacco budworm (Heliothis virescens) and fall armyworm (Spodoptera frugiperda) was used as previously described (Kubo and Klocke, 1983) to detect insecticidal activities in the plant extracts to monitor fractionation, and to determine the potency of the isolated constituents and derivatives. Potency was determined either as the effective concentration (EC50) of added material that is necessary to reduce larval growth to 50% of the control values or as the lethal concentration (LC50) of added material that is necessary to kill 50% of the treated larvae. EC50 and LC50 values were determined from log probit paper and analyzed statistically by the method of Litchfield and Wilcoxon, supra.

[2] = tested on: Heliothis virescens; test: Oral injection of fifth-instar larvae, pupal and adult development (non-irradiated compounds); format: in vivo; conditions: for Number Adults / Number Adults Deformed / Number Pupae / Unsuccessful Larvae-Pupae (number) / Unsuccessful Pupae-Adult (number) / Adults (%) / Adults Deformed (%) / Pupae (%) / Unsuccessful Larvae-Pupae (%) / Unsuccessful Pupae-Adult (%): 1.0 microgram injected orally; for Number Adults / Number Adults Deformed / Number Pupae / Unsuccessful Larvae-Pupae (number) / Unsuccessful Pupae-Adult (number): fifth-instar; for Number Adults / Number Adults Deformed / Number Pupae / Unsuccessful Larvae-Pupae (number) / Unsuccessful Pupae-Adult (number) / inhibition of pupation (in words): non-irradiated; for Adults (%) / Adults Deformed (%) / Pupae (%) / Unsuccessful Larvae-Pupae (%) / Unsuccessful Pupae-Adult (%): % of larvae; for inhibition of pupation (in words): 1.0 μg per os
Protocol: (§1) Individual larvae were injected per os on the first day of the fifth instar with 1.0 μg of either irradiated or non-irradiated compounds dissolved in 1.0 μl of 75% aqueous ethanol.
Table 2: Successful and unsuccessful pupal and adult development of
fifthinstar Heliothis Virescens larvae injected orally with 1.0 microgram
of either azadirachtin, 3deacetylazadirachtin, 22,23dihydroazadirachtin,
or 2',3',22,23tetrahydroazadirachtin.

[3] = tested on: Heliothis virescens; test: Relative activity of UV-irradiated compounds in inhibiting pupal development of fifth-instar larvae; format: in vivo; conditions: for Relative activity, inhibition of pupal development: relative to non-irradiated counterpart; for activity retained after 90 h of exposure to UV radiation (in words): 90 h UV
Protocol: (§2) Azadirachtin, 3-deacetylazadirachtin, 22,23-dihydroazadirachtin, and 2',3',22,23-tetrahydroazadirachtin (1.0 mg/ml absolute ethanol) were placed individually in capped quartz NMR tubes (5×180 mm) and were irradiated with two UV germicidal lights (GE, G30T8, 200-280 nm, 30W) 1.8 m from the source at room temperature for up to 400 h. The controls were identical samples protected from exposure to UV radiation by wrapping with aluminum foil. At selected time intervals, aliquots from both the controls (non-irradiated) and irradiated samples were removed for high-performance liquid chromatography (HPLC) analysis and bioassay (vide infra).
as §1
Table 3: Relative activity of azadirachtin, 3deacetylaza-dirachtin,
22,23dihydroazadirachtin, and 2',3',22,23tetrahydroazadirachtin, all of
which had been exposed for 15, 30, 90, 200, and 400 hours to UV radiation
inhibiting the pupal development of fifthinstar Heliothis virescens
(§3) larvae. Relative activity is defined as the percentage of larvae injected

[4] = tested on: Heliothis virescens; test: Relative activity of UV-irradiated compounds in inhibiting adult development of fifth-instar larvae; format: in vivo; conditions: for Relative activity, inhibition of adult development: relative to non-irradiated counterpart; for ability to inhibit larvae from reaching the adult stage after UV (in words): 200 h UV
Protocol: as §2, §1
Table 4: Relative activity of azadirachtin, 3deacetylaza-dirachtin,
22,23dihydroazadirachtin, 2',3',22,23tetrahydroaza-dirachtin, all of whic
had been exposed for 15, 30, 90, 200, and 400 hours to UV radiation, in
inhibiting the adult development of fifthinstar Heliothis virescens
as §3
relative to the percentage injected with its nonirradiated counterpart

[5] = UV stability in ethanol by reversed phase HPLC; format: physicochemical; conditions: for UV lability (in words): UV irradiation, HPLC
Protocol: Stability of Azadirachtin derivatives was determined as follows:
as §2
Analytical reversed phase HPLC was performed on a phenyl (5μm) column run isocratically with acetonitrile-water (3:7) (Yamasaki et al.) Peaks were detected at 214 nm. The irradiated samples were compared with their corresponding non-UV-irradiated controls by measuring the height of the peak eluting at the appropriate Rt for each irradiated compound relative to each one's non-irradiated control. Results are expressed as the percent of the initial sample concentration remaining relative to the control. Each time point was done in at least triplicate fashion.

[6] = tested on: insects; test: Antifeedant / systemic action; conditions: in vivo
[7] = tested on: insects; conditions: literature; cited from earlier work
[8] = tested on: insect; conditions: Kubo & Klocke; cited from earlier work

SMILES | EC50 (concentration causing 50% growth inhibition) [1] | Number Adults [2] [Number] | Number Adults Deformed [2] [Number] | Number Pupae [2] [Number] | Unsuccessful Larvae-Pupae (number) [2] [Number] | Unsuccessful Pupae-Adult (number) [2] [Number] | Adults (%) [2] [%] | Adults Deformed (%) [2] [%] | Pupae (%) [2] [%] | Unsuccessful Larvae-Pupae (%) [2] [%] | Unsuccessful Pupae-Adult (%) [2] [%] | inhibition of pupation (in words) [2] | Relative activity, inhibition of pupal development ([3]; 15 h UV exposure) [%] | Relative activity, inhibition of pupal development ([3]; 30 h UV exposure) [%] | activity retained after 90 h of exposure to UV radiation (in words) [3] | Relative activity, inhibition of pupal development ([3]; 90 h UV exposure) [%] | ability to inhibit pupation after UV (in words) ([3]; 200 h UV) | Relative activity, inhibition of pupal development ([3]; 200 h UV exposure) [%] | ability to inhibit pupation after UV (in words) ([3]; 400 h UV) | activity retained after 400 h of exposure to UV radiation ([3]; 400 h UV) | other results
C/C=C(\C)C(=O)OC1CC(OC(C)=O)C2(C(=O)OC)COC3C2C12COC(O)(C(=O)OC)C2C(C)(C12OC1(C)C1CC2OC2OCCC21O)C3O (stereo not shown) [22,23-dihydroazadirachtin] | 0.08 (0.04-0.15) ppm | 6 | 5 | 47 | 13 | 4 | 3.4 | 2.8 | 26.7 | 7.4 | 2.3 | less effective | 113.1 | 104.6 | retained full activity | 100.0 | did decline | 72.7 | even greater decline | approximately 50% | Relative activity, inhibition of pupal development ([3]; 400 h UV exposure): 49.1%; ability to inhibit pupation after UV (in words) ([3]; up to 90 h UV): not appreciably reduced; Relative activity, inhibition of adult development ([4]; 15 h UV exposure): 103.5%; Relative activity, inhibition of adult development ([4]; 30 h UV exposure): 100.1%; Relative activity, inhibition of adult development ([4]; 90 h UV exposure): 103.5%; ability to inhibit larvae from reaching the adult stage after UV (in words) [4]: more so; Relative activity, inhibition of adult development ([4]; 200 h UV exposure): 69.0%; Relative activity, inhibition of adult development ([4]; 400 h UV exposure): 74.5%; degradation following 400 h of exposure to UV radiation (in words) [5]: none of the three compounds remained in their original state; kinetics of UV degradation (in words) [5]: first-order reaction; UV lability (in words) [5]: UV-labile
C/C=C(\C)C(=O)O[C@H]1C[C@@H](OC(C)=O)[C@@]2(C(=O)OC)CO[C@H]3[C@@H](O)[C@@](C)([C@]45O[C@@]4(C)[C@H]4C[C@@H]5O[C@@H]5OC=C[C@@]54O)[C@H]4[C@]1(CO[C@]4(O)C(=O)OC)[C@@H]32 [azadirachtin] | 0.07 (0.05-0.10) ppm | 2 | 1 | 10 | 5 | 0 | 1.3 | 0.7 | 6.7 | 3.4 | 0 | equally effective | 98.6 | 98.9 | retained full activity | 85.7 | did decline | 74.2 | even greater decline | approximately 50% | LC50 ([1]; Heliothis virescens, po, read-out: LC50 (concentration causing 50% mortality)): 0.8 µg/mL (≈ 1.11 µM); mortality at 0.001 mg ([2]; Heliothis virescens, light or radiation study, po, read-out: % Mortality Prior to Adult Stage): 98.7%; Relative activity, inhibition of pupal development ([3]; 400 h UV exposure): 60.0%; ability to inhibit pupation after UV (in words) ([3]; up to 90 h UV): not appreciably reduced; Relative activity, inhibition of adult development ([4]; 15 h UV exposure): 101.3%; Relative activity, inhibition of adult development ([4]; 30 h UV exposure): 101.3%; Relative activity, inhibition of adult development ([4]; 90 h UV exposure): 97.3%; ability to inhibit larvae from reaching the adult stage after UV (in words) [4]: declined sligtly; Relative activity, inhibition of adult development ([4]; 200 h UV exposure): 89.7%; Relative activity, inhibition of adult development ([4]; 400 h UV exposure): 81.1%; degraded after 90 h of exposure to UV radiation ([5]; 90 h UV): more than 80%; degradation following 400 h of exposure to UV radiation (in words) ([5]; 400 h UV): none of the three compounds remained in their original state; T1/2 of UV degradation ([5]; UV 200-280 nm, 1.0 mg/ml ethanol, room temperature): 25 h; UV lability (in words) [5]: UV-labile; kinetics of UV degradation (in words) ([5]; under the conditions used, data not shown): first-order reaction; antifeedant function (in words) [6]: function as antifeedants; ecdysis inhibitory activity (in words) [7]: potent ecdysis inhibitory activity; also recorded: same ecdysis inhibitory activity
C/C=C(\C)C(=O)O[C@@H]1C[C@H](O)[C@]23CO[C@H](C(=O)OC)[C@H]2[C@](C)([C@]24O[C@@]2(C)[C@H]2C[C@@H]4O[C@@H]4OC=C[C@@]42O)[C@H](O)[C@@H]2OC[C@@]1(C(=O)OC)[C@H]23 [deacetylazadirachtinol] |  |  |  |  |  |  |  |  |  |  |  |  |  |  |  |  |  |  |  |  | insect growth inhibitor activity, fold less active than azadirachtin [8]: about 2.5 fold; ecdysis inhibitory activity (in words) [7]: same ecdysis inhibitory activity
